From EPA's ToxValDB 9.5 (doi:10.2903/j.efsa.2011.1965)

Columns and labels:
Typhlodromus pyri = test: LR50; higher = less toxic; conditions: not reported; mortality
Oncorhynchus mykiss = conditions: chronic/long-term; duration: 21 days; behavior
Cyprinus carpio = conditions: acute; duration: 96 hours; mortality
Colinus virginianus = conditions: for LD50: acute, oral, mortality
Anas platyrhynchos = conditions: for LD50: oral, mortality
Oryctolagus sp. = conditions: reproduction developmental; reproduction
Apis mellifera = conditions: acute; duration: 48 hours; oral; unspecified; mortality
Tagia sp. = conditions: acute; duration: 14 days; mortality
Daphnia magna = conditions: chronic/long-term; duration: 21 days; reproduction

COc1c(Cl)ccc(Cl)c1C(=O)O [Dicamba]
LR50 (Typhlodromus pyri): 233 g/ha
NOEC (Oncorhynchus mykiss): 180 mg/L
LD50 (Rattus norvegicus; acute, oral, F, mortality): 1580 mg/kg-day
NOAEL (Rattus norvegicus; reproduction developmental, body weight): 35 mg/kg-day
LC50 (Cyprinus carpio): > 100 mg/L
LD50 (Colinus virginianus; diet): > 995 mg/kg-day
LD50 (Colinus virginianus): 216 mg/kg-day
NOEL (Colinus virginianus; reproduction developmental): 170 mg/kg-day
LD50 (Anas platyrhynchos; acute, unspecified): 1370 mg/kg-day
NOEL (Anas platyrhynchos; reproductive): 89 mg/kg-day
LD50 (Anas platyrhynchos; short-term, feed): > 1570 mg/kg-day
NOAEL (Oryctolagus sp.): 30 mg/kg-day
LD50 (Apis mellifera): > 100 µg/piece
LC50 (Tagia sp.): > 1000 mg/kg
NOEC (Daphnia magna): 97 mg/L
